Assay results from US8927023B2, “Biocompatible, non-biodegradable, non-toxic polymer useful for nanoparticle pharmaceutical compositions” (Fresenius Kabi Oncology Limited, priority 2005, dated 2015).

Experiments:
[1] = Average particle size of the nanoparticles in the pharmaceutical composition; type: physicochemical; conditions: 1 ml ethanol solution into ≈35 ml
Source text: (§1) This could be exemplified with respect to pharmaceutical compositions of two poorly water-soluble anticancer drugs or compounds, viz.

[2] = Clarity of the solution of the nanoparticulate composition; type: physicochemical
Source text: as §1

[3] = Stability: hours the drug remains in solution without precipitation
Source text: By reference to the term “stability”, it is to be construed to mean the period, counted in hours, wherein the poorly water-soluble drug or compound remains in solution in the pharmaceutical composition comprising the same, without any precipitation of the drug or compound from therein.

[4] = 1 ml ethanol solution into ≈35 ml, needle 0.305 mm, addition 3 Secs
[5] = 1 ml ethanol solution into ≈35 ml, needle 1.270 mm, addition 2 Secs
[6] = 1 ml ethanol solution into ≈35 ml, needle 1.270 mm, addition 6 Secs
[7] = 15 ml ethanol solution into ≈500 ml, needle 0.330 mm, addition 18 Secs
[8] = 15 ml ethanol solution into ≈500 ml, needle 0.711 mm, addition 10 Secs

SMILES: C=C(C)[C@@H]1CC[C@]2(C(=O)O)CC[C@]3(C)C(CCC4[C@@]5(C)Cc6c([nH]c7ccc(Cl)cc67)C(C)(C)C5CC[C@]43C)C12 (stereo partly drawn) [DRF-4012]
- Average Particle Size (nm) ([1]; needle 0.305 mm, addition 6 Secs): 200 nm
- Average Particle Size (nm) ([1]; needle 0.465 mm, addition 2 Secs): 90 nm
- Average Particle Size (nm) ([1]; needle 0.467 mm, addition 6 Secs): 200 nm
- Average Particle Size (nm) ([1]; needle 0.711 mm, addition 2 Secs): 100 nm
- Average Particle Size (nm) ([1]; needle 0.711 mm, addition 6 Secs): 240 nm
- Average Particle Size (nm) ([1]; needle 1.270 mm, addition 2 Secs): 130 nm
- Average Particle Size (nm) ([1]; needle 1.270 mm, addition 6 Secs): 8100 nm
- Average Particle Size (nm) ([1]; nanoparticles with the polymer, needle 0.305 mm, addition 3 Secs): 70 nm
- Clarity Of The Solution [2, 4]: Clear
- Clarity Of The Solution [2, 5]: Opalescent
- Clarity Of The Solution [2, 6]: Milky

SMILES: CC(=O)O[C@H]1C(=O)[C@@]2(C)[C@H]([C@H](OC(=O)c3ccccc3)[C@]3(O)C[C@H](OC(=O)[C@H](O)[C@@H](NC(=O)c4ccccc4)c4ccccc4)C(C)=C1C3(C)C)[C@]1(OC(C)=O)CO[C@@H]1C[C@@H]2O [Paclitaxel]
- Clarity Of The Solution [2, 4]: Clear
- Clarity Of The Solution [2, 5]: Opalescent
- Clarity Of The Solution [2, 6]: Milky
- Clarity Of The Solution [2, 7]: Clear
- Clarity Of The Solution [2, 8]: Clear
- Stability [3, 4]: >24 h
- Stability ([3]; 1 ml ethanol solution into ≈35 ml, needle 0.305 mm, addition 6 Secs): <4 h
- Stability ([3]; 1 ml ethanol solution into ≈35 ml, needle 0.467 mm, addition 2 Secs): 20 h
- Stability ([3]; 1 ml ethanol solution into ≈35 ml, needle 0.467 mm, addition 6 Secs): <2 h
- Stability ([3]; 1 ml ethanol solution into ≈35 ml, needle 0.711 mm, addition 2 Secs): <10 h
- Stability ([3]; 1 ml ethanol solution into ≈35 ml, needle 0.711 mm, addition 6 Secs): <2 h
- Stability [3, 5]: <4 h
- Stability [3, 6]: <0.5 h
- Stability [3, 7]: 20 h
- Stability [3, 8]: >24 h
- Stability ([3]; 15 ml ethanol solution into ≈500 ml, needle 0.711 mm, addition 15 Secs): <15 h
